In patent US20100190856A1, “Novel Polyhydroxylated Compounds as Fatty Acid Synthase (FASN) Inhibitors” (UNIVERSIDAD COMPLUTENSE DE MADRID, priority 2007, published 2010):
“Also recorded” adds a separate entry of the source. Like-named read-outs stand apart in the source and are kept apart here.

Tests used:
[1] = tested on: SK-Br3 breast cancer cells; test: MTT cytotoxicity assay, SK-Br3 breast cancer cells; assay type: cell-based, human; settings: for IC50: MTT, 48 h, read-out: IC50, growth inhibition, SK-Br3
[2] = tested on: MCF-7 breast cancer cells; test: MTT cytotoxicity assay, MCF-7 breast cancer cells; assay type: cell-based, human; settings: Homo sapiens, MCF7, MCF-7 cells, 48 h, read-out: IC50, growth inhibition, MCF-7
[3] = tested on: Non-malignant fibroblasts N-1; test: MTT cytotoxicity assay, non-malignant fibroblasts N-1; assay type: cell-based; settings: for IC50: Fibroblast, non-malignant fibroblasts, MTT, 48 h, read-out: IC50, growth inhibition, Fibroblasts; for effect on non-malignant cells / normal fibroblasts: at concentrations similar to IC50; for effects in cell death / morphology changes in non-malignant cells: up to doses three-fold their cytotoxic IC50 value in tumoral cells
[4] = target: T1, FASN (Homo sapiens, UniProt P49327); test: Fatty acid synthase activity assay in SK-Br3 cells (NADPH oxidation, particle-free supernatants); assay type: cell-based; set-up: FASN activity, % of control cells / FASN activity reduced to / reduction of FASN activity: concentration or dose not given beside the values; settings: for inhibition of FASN activity (in words): SK-Br3 cells treated 6, 12 and 24 hours; for FASN activity, % of control cells: SK-Br3 cells, 24 h exposure
T1 construct: endogenous in cells; host or cells: SK-Br3 breast cancer cells

[5] = tested on: PARP; test: Immunoblot analysis of PARP cleavage in SK-Br3 cells; assay type: cell-based, human; settings: for 89 KDa product of PARP cleavage: SK-Br3 cells, 30 μM, 12, 24 and 48 h
Protocol: (§1) Following the treatment of SK-Br3 cells with the studied compound at the desired concentrations and time intervals, cells were harvested by treatment with trypsin-EDTA solution, washed twice with PBS and stored at −80° C. The cells were lysed in lysis buffer (1 mM EDTA, 150 mM NaCl, 100 μg/mL PMSF and 50 mM Tris-HCl, pH 7.5) and kept at 4° C. while they were routinely mixed every 2 min on the vortex during 30 min. A sample was taken for measurement of protein content by a BioRad assay (Bio-Rad Laboratories). Equal amounts of protein were heated in sodium dodecyl sulphate (SDS) sample buffer (Laemmli) for 5 min at 95° C., separated on a 3-8% SDS-polyacrylamide gel (FASN, p185^HER2/neu, phospho-p185^HER2/neu) or 4-12% SDS-polyacrylamide gel (AKT, phospho-AKT, ERK1/2, phospho-ERK1/2 and PARP) and transferred onto nitrocellulose membranes. The membranes were incubated for 1 h at room temperature in blocking buffer (2.5% powdered-skim milk in TBS-T [10 mM Tris-HCl pH 8.0, 150 mM NaCl and 0.05% Tween-20]) to prevent non-specific antibody binding. The primary antibody used was a monoclonal antibody. Antibody dilution was prepared in blocking solution and blots were incubated with monoclonal antibody overnight at 4° C. […] Blots were re-probed with an antibody for β-actin to control for protein loading and transfer.
Western blot analysis for poly-ADP-ribose polymerase (PARP) was performed on SK-Br3 cells exposed for 12, 24 and 48 h to compound f (30 μM) and compound i (30 μM). Apoptosis and induction of caspase activity was confirmed by Western blotting analysis showing cleavage of PARP.

[6] = tested on: HER2; test: Immunoblot analysis of p185HER2/neu and phospho-p185HER2/neu in SK-Br3 cells; assay type: cell-based, human; settings: for level of total HER2 / expression levels of p-HER2 proteins / levels of p-HER2 proteins: SK-Br3, 30 μM; for level of total HER2: Western blotting or HER2-specific ELISA; for expression levels of p-HER2 proteins: within 2 h after exposure; for levels of p-HER2 proteins: within 6 h after treatment; for active form of oncoprotein HER2: within 2 h after treatment
Protocol: as §1
We have examined the time-dependent effects of compound f (30 μM) and compound i (30 μM) on HER2, AKT and ERK1/2 activation.

[7] = tested on: ERK1/2; test: Immunoblot analysis of ERK1/2 and phospho-ERK1/2 in SK-Br3 cells; assay type: cell-based, human; settings: for activation of p-ERK1/2 proteins: SK-Br3, 30 μM, 6 h after treatment; for active form of ERK1/2: within 2 h after treatment
Protocol: as §1

T1 sequence (P49327 whole entry): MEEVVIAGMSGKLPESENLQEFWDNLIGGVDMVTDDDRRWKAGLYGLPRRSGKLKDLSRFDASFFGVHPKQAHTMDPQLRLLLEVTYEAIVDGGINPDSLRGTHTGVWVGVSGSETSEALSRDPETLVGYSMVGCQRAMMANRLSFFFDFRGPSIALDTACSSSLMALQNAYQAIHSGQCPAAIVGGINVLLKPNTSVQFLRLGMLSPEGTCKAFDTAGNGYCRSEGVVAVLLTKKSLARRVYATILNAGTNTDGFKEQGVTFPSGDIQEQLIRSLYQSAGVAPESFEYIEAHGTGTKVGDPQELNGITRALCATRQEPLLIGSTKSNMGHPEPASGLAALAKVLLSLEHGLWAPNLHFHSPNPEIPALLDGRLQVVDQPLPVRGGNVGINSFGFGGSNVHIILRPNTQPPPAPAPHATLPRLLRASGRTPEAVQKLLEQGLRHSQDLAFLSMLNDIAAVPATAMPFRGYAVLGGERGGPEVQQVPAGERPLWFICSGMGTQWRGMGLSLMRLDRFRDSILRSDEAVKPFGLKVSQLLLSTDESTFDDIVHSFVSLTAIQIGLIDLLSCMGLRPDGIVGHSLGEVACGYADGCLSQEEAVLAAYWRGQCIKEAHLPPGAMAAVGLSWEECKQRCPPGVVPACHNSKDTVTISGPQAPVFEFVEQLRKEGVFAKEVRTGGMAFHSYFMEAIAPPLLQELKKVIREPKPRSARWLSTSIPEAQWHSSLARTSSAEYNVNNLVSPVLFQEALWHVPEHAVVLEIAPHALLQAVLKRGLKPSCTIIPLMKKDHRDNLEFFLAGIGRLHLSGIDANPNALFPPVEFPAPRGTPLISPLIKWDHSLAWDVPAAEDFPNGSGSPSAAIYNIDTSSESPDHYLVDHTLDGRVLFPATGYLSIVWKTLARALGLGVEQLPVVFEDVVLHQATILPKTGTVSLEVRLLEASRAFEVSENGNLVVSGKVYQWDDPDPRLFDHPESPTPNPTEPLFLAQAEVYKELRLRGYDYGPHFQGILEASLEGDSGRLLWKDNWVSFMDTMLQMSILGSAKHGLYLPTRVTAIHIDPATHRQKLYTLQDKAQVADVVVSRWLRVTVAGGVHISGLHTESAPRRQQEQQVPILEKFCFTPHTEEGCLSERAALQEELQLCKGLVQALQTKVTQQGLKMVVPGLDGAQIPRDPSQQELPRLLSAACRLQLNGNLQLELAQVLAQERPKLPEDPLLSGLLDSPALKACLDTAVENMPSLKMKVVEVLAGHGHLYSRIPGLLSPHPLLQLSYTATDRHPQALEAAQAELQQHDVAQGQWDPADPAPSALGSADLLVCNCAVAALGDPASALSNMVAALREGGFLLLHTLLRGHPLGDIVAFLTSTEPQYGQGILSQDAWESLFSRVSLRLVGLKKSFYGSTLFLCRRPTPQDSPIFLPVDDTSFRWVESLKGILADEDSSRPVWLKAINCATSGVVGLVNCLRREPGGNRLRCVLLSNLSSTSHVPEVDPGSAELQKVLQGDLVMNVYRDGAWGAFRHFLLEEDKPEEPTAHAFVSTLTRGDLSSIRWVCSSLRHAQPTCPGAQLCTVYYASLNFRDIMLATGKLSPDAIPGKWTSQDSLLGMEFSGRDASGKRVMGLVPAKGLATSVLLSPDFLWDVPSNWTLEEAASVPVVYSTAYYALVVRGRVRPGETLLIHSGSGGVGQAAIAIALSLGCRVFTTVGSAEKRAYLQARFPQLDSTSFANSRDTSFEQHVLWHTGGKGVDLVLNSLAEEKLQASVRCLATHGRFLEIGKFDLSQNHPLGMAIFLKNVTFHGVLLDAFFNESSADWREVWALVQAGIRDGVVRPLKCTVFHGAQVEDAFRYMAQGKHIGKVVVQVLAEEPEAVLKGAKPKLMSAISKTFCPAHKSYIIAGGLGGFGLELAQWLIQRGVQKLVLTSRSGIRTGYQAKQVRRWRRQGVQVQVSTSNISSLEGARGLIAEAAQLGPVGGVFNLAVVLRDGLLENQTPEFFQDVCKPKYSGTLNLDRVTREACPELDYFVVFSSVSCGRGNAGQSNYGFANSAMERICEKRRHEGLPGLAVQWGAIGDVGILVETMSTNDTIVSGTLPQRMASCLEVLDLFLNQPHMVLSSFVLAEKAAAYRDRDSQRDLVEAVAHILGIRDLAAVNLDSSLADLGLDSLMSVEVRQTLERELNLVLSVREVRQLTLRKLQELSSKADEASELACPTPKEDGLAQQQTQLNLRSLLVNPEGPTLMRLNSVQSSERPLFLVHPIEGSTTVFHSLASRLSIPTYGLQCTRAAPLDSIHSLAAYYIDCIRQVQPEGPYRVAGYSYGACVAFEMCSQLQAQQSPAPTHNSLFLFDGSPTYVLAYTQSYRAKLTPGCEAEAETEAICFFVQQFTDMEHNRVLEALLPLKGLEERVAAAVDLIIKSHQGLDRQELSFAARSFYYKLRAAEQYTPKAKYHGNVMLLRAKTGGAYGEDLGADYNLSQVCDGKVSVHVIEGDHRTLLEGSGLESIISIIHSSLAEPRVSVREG

SMILES	relative IC50 ratio of EGCG to compound [1]	IC50 ([1]; Homo sapiens, SK-BR-3, 48 h)	IC50 [1]	IC50 [2]	IC50 [3]	effect on non-malignant cells / normal fibroblasts [3]	effects in cell death / morphology changes in non-malignant cells [3]	inhibition of FASN activity (in words) [4]	FASN activity, % of control cells [4]	reduction of FASN activity ([4]; after 6 h of cell exposure)	reduction of FASN activity ([4]; after 24 h of cell exposure)	induction of apoptosis (cleavage of PARP) [5]	89 KDa product of PARP cleavage [5]	level of total HER2 [6]	expression levels of p-HER2 proteins [6]	levels of p-HER2 proteins [6]	active form of oncoprotein HER2 [6]	activation of p-ERK1/2 proteins [7]	active form of ERK1/2 [7]
O=C(Oc1cc(OC(=O)c2cc(O)c(O)c(O)c2)c2ccccc2c1)c1cc(O)c(O)c(O)c1 [f, 1,3-bis[(3,4,5-trihydroxybenzoyl)oxy]naphthalene]	7.5	21.3 ± 6.7 µM	20 µM	46.3 ± 18 µM	> 150 µM	not affected	No significant effects	inhibit FASN activity; also recorded: decreased in a time-dependent manner	10±4%	50%	50%	induced apoptosis	marked increase	no significant change	markedly decreased	total decrease	marked decrease	marked decrease	marked decrease
O=C(Oc1ccc(OC(=O)c2cc(O)c(O)c(O)c2)c2ccccc12)c1cc(O)c(O)c(O)c1 [i, 1,4-bis[(3,4,5-trihydroxybenzoyl)oxy]naphthalene]	5.4	28.7 ± 0.3 µM	28 µM	44.4 ± 16.3 µM	> 150 µM	not affected	No significant effects	inhibit FASN activity; also recorded: decreased in a time-dependent manner	31±16%	50%	50%	induced apoptosis	marked increase	no significant change	markedly decreased	total decrease	marked decrease	marked decrease	marked decrease
